Experimental data published in patent US7999137B2, “Pesticide bi-phenyl-amidine derivatives” (Bayer Cropscience AG, priority 2006, dated 2011).

Key:
[1] = logP by HPLC on reversed-phase column (C 18), EEC Directive 79/831 Annex V.A8; format: physicochemical; conditions: 40° C., 0.1% aqueous formic acid and acetonitrile; for log p (HCOOH): HPLC reversed-phase C 18, linear gradient 10% to 90% acetonitrile; for chromatographic logP: reversed-phase HPLC column (C 18), pH 2.3, HPLC, read-out: log P (pH 2.3)
Protocol: Temperature: 40° C.; Mobile phases: 0.1% aqueous formic acid and acetonitrile; linear gradient from 10% acetonitrile to 90% acetonitrile.
Calibration was carried out using unbranched alkan-2-ones (comprising 3 to 16 carbon atoms) with known logP values (determination of the logP values by the retention times using linear interpolation between two successive alkanones).

[2] = test system: Aedes aegypti larvae; assay: In vivo protective test on Aedes aegypti (AEDSAE U), larvae mortality; conditions: concentration and time not stated
Protocol: In Vivo Protective Test on Aedes Aegypti (AEDSAE U)
To produce a suitable preparation of the active compound, the active compound is mixed with the stated amount of solvent, and the concentrate is diluted with staining water to the desired concentration.
Aedes aegypti larvae are pipetted with a preparation of active ingredient of the desired concentration.
After the specified period of time, mortality in % is determined. 100% means that all larvae have been killed, a 0% means that none of the larvae have been killed.

[3] = test system: Heliotis virescens; assay: Test on Heliotis virescens (HELIVI spray application), egg mortality on soybean leaf sections; format: in vivo; conditions: eggs on sprayed soybean leaf sections; concentration and time not stated
Description: Heliotis virescens—Test on Heliotis virescens (HELIVI Spray Application)
To produce a suitable preparation of the active compound, 1 part by weight of active compound is mixed with the stated amount of solvent and emulsifier, and the concentrate is dilutes with emulsifier-containing water to the desired concentration.
Soybean (Glycine max.) leaf sections are sprayed with a preparation of the active ingredient of the desired concentration. Once dry, the leaf sections are infested with eggs of cotton bollworm (Heliotis virescens).
After the specified period of time, mortality in % is determined. 100% means that all eggs have been killed and 0% means that none of the eggs have been killed.

Structure (SMILES) | log p (HCOOH) [1] | activity (mortality of larvae) [2] | activity (mortality of eggs) [3] | chromatographic logP [1]
CCN(C)C=Nc1ccc(-c2ccc(F)c(Cl)c2)cc1F [Compound 9] | 1.78 | good activity |  | 
CCN(C)C=Nc1ccc(-c2ccc(Cl)c(C(F)(F)F)c2)cc1Cl [Compound 18] | 2.19 | good activity |  | 
CCN(C)C=Nc1ccc(-c2ccc(Cl)c(C(F)(F)F)c2)cc1C(F)(F)F [Compound 19] | 2.90 | good activity |  | 
CCN(C)C=Nc1ccc(-c2ccc(C(F)(F)F)cc2)cc1F [Compound 26] | 1.87 | good activity | good activity | 
CCN(C)C=Nc1cc(C)c(-c2ccc(Oc3ccccc3)cc2)cc1C [Compound 47] | 2.56 | good activity |  | 
CCc1cc(-c2ccc(Cl)c(Cl)c2)ccc1N=CN(C)CC [Compound 54] | 2.37 | good activity |  | 
CCN(C)C=Nc1ccc(-c2ccc(C=NOC)cc2)cc1F [Compound 77] | 1.73 | good activity |  | 
CCN(C)C=Nc1cc(F)c(-c2ccc(Cl)cc2)cc1C [Compound 99] | 2.23 | good activity |  | 
CCN(C)C=Nc1ccc(-c2ccc(OC(F)(F)F)cc2)c(Cl)c1 [Compound 100] | 2.15 | good activity |  | 
Cc1cc(-c2ccc(Cl)cc2)c(F)cc1N=CN(C)C(C)C [Compound 104] | 2.22 | good activity |  | 
CC(C)N(C)C=Nc1ccc(-c2ccc(OC(F)(F)F)cc2)c(Cl)c1 [Compound 105] | 2.42 | good activity |  | 
CCN(C)C=Nc1ccc(-c2ccc(C(F)(F)F)cc2)cc1C [Compound 127] | 2.17 | good activity |  | 
CCN(C)C=Nc1ccc(-c2cccc(Cl)c2)cc1C [Compound 128] | 2.01 | good activity |  | 
CCN(C)C=Nc1ccc(-c2ccc(C(C)(C)C)cc2)cc1C [Compound 129] | 2.67 | good activity |  | 
CCN(C)C=Nc1cc(C)c(-c2ccc(C3CCCC3)cc2)cc1C [Compound 167] | 2.94 |  |  | 
CCN(C)C=Nc1cc(C)c(-c2ccc(C(C)(C)C)c(Cl)c2)cc1C [Compound 168] | 2.85 |  |  | 
Cc1cc(-c2ccc(C(C)(C)C)c(F)c2)c(C)cc1N=CN(C)C(C)C [Compound 169] | 2.74 |  |  | 
CCN(C)C=Nc1cc(C)c(-c2ccc(OC(C)C)cc2)cc1C [Compound 170] | 2.18 |  |  | 
CCN(C)C=Nc1cc(C)c(-c2ccc(OC(C)C)c(Cl)c2)cc1C [Compound 171] | 2.62 |  |  | 
CCN(C)C=Nc1cc(C)c(-c2ccc(OC(C)C)c(F)c2)cc1C [Compound 172] | 2.37 |  |  | 
CCN(C)C=Nc1cc(C)c(-c2ccc(S(=O)(=O)N(C)C)cc2)cc1C [Compound 173] | 1.76 |  |  | 
CCN(C)C=Nc1cc(C)c(-c2ccc(S(=O)(=O)C(F)(F)F)cc2)cc1C [Compound 174] | 2.21 |  |  | 
CCN(C)C=Nc1cc(C)c(-c2ccc(Br)cc2)cc1C [Compound 175] | 2.20 |  |  | 
CCN(C)C(C)=Nc1cc(C)c(-c2ccc(C(C)(C)C)cc2)cc1C [Compound 176] | 2.77 |  |  | 
CCN(C)C=Nc1cc(C#N)c(-c2ccc(C(C)(C)C)cc2)cc1C [Compound 177] | 2.21 |  |  | 
CCN(C)C=Nc1cc(C)c(-c2cccc(C(C)C)c2)cc1C [Compound 178] | 2.42 |  |  | 
CCN(C)C=Nc1cc(C)c(-c2cccc([Si](C)(C)C)c2)cc1C [Compound 179] | 3.00 |  |  | 
Cc1cc(-c2ccc(C(C)(C)C)cc2)c(C)cc1N [Intermediate (VII-1), 4′-tert-butyl-2,5-dimethylbiphenyl-4-amine] |  |  |  | 3.65
CCN(C)/C=N/c1cc(C)c(Br)cc1C [Intermediate (Va-1), N′-(4-bromo-2,5-dimethylphenyl)-N-ethyl-N-methylimidoformamide] |  |  |  | 1.36
